Measured values reported in patent publication US20250011404A1, “TARGETING APOE ENHANCES T-CELL KILLING IN CANCER IMMUNOTHERAPY” (Children's National Medical Center, priority 2021, published 2025).
“Also recorded” adds a separate entry of the source.

Key:
[1] = tested on: splenocytes co-cultured with Myc-inhibited B16 tumor cells; assay: ProcartaPlex multiplex immunoassay of splenocyte/B16 co-cultures; assay type: cell-based, mouse
Method: To further investigate the influence of tumor secreted apoE on immune cell function, immunogenic B16 tumor cells (B16 cells treated with Myc inhibitors (0.25 μM BET+0.25 μM JQ1 for 4 days) were irradiated at 60 Gray and co-cultured with naïve C57/BL6 splenocytes in the presence of either apoE mimetic COG133 at 0.3, 3 and 9 μM or anti-APOE blocking antibody at 1, 10 and 30 μg/ml concentrations. Prior work has shown the immunogenic effect of treating cancer cells with Myc inhibitors and irradiation. IFNγ production was quantified by ELISA at 48 h. Splenocytes produced high levels of IFNγ when co-cultured with Myc-inhibited immunogenic B16 cells as shown in FIGS. 3A-3C. Exposure of these cells to apoE mimetic COG133 repressed IFNγ production (6-fold reduction) (FIG. 3A), while the presence of Anti-APOE antibody enhanced IFNγ production (3-fold increase) (FIG. 3B). We also tested IFNγ production from vaccinated splenocytes following co-culture with treated and untreated B16 cells in the presence of COG 133. To obtain vaccinated splenocytes, 10^4 WT B16 tumor cells and 100 μg/ml anti-CTLA4 antibody were administered to C57BL/6 mice on day 0, and splenocytes were collected at day 7 after tumor cell inoculation. Compared with naïve splenocytes, vaccinated splenocytes produced dramatically greater level of IFNγ, especially when they were co-cultured with Myc inhibited B16 tumor cells. […] In addition to IFNγ, we also quantified other cytokine/chemokines using ProcartaPlex multiplex immunoassay. […] Within these 14 cytokines, four of them including IFN[…], IL6, IL18 and RANTES (CCL5) were suppressed after exposure to apoE peptide mimetic COG133 in a dose dependent manner (FIG. 17).
(§1) Cell culture supernatant was collected after centrifuge at 1,200 rpm for 10 min at 4° C. The concentrations of the following immune molecules were determined using the mouse Cytokine & Chemokine 36-plex ProcartaPlex Panel, a magnetic bead-based multiplex immunoassay (Thermo Scientific) following our previous protocol(19). Briefly, cell culture supernatant samples were mixed with antibody-linked polystyrene beads on a 96-well plate and incubated at room temperature (RT) for 2 h on an orbital shaker at 500 rpm. After washing, plates were incubated with biotinylated detection antibody for 30 min at RT. Plates were then washed twice and then labeled beads were resuspended in streptavidin-PE. Each sample was measured in duplicate along with standards (8-point dilutions) and the buffer control. Plates were read using a Luminex Bio-plex 200 system (Bio-Rad Corp.) for quantitative analysis.

[2] = tested on: Mouse bone-marrow derived dendritic cells (DC); assay: Cytokine production of TLR7/8 activated bone-marrow derived dendritic cells, multiplex ELISA; assay type: cell-based; settings: 48 hr
Method: Mouse bone-marrow derived dendritic cells (DC) were cultured in the presence of the indicated concentrations of apoE agonist COG133 for 48 hr. COG133 increased the production of anti-inflammatory IL-10, GM-CSF, and chemokines MCP-1 and MCP-3 by TLR7/8 activated DC while decreasing the levels of proinflammatory cytokines IL-1α, IL-1β and IL-23 in a dose-dependent manner as determined by multiplex ELISA.
as §1

[3] = tested on: vaccinated splenocytes from lrp8−/− mice; assay: Cytokine production of vaccinated splenocytes from lrp8−/− mice co-cultured with immunogenic B16 cells (ELISA, multiplex); assay type: cell-based, mouse
Text: To functionally define the role of the lrp8 receptor engagement in apoE suppression, vaccinated splenocytes from lrp8^−/− mice were isolated. These cells were co-cultured with BET/JQ1 treated (Myc-suppressed) immunogenic B16 cells for 48 hr with or without exposure to the apoE mimetic COG133. […] In addition, using ProcartaPlex multiplex immunoassay, we also quantified other cytokines/chemokines produced in the reaction. […] These included effector function: IFNγ; stimulator function, IL18, GM-CSF, G-CSF; inflammatory cytokines: IL2, IL3, IL4, IL5, IL9, IL13, IL23, IL12p70; chemo attractant factors: MCP-1, MCP3, MIP-1α, CCL-5 (Rantes); and regulatory factors: IL6, IL-10 (P<0.05). […] Cell culture supernatant was collected after centrifuge at 1,200 rpm for 10 min at 4° C. The concentrations of the following immune molecules were determined using the mouse Cytokine & Chemokine 36-plex ProcartaPlex Panel, a magnetic bead-based multiplex immunoassay (Thermo Scientific) following our previous protocol(19). Briefly, cell culture supernatant samples were mixed with antibody-linked polystyrene beads on a 96-well plate and incubated at room temperature (RT) for 2 h on an orbital shaker at 500 rpm. After washing, plates were incubated with biotinylated detection antibody for 30 min at RT. Plates were then washed twice and then labeled beads were resuspended in streptavidin-PE. Each sample was measured in duplicate along with standards (8-point dilutions) and the buffer control. Plates were read using a Luminex Bio-plex 200 system (Bio-Rad Corp.) for quantitative analysis. WT and apoE^−/− mice or WT and lrp8^−/− mice, were inoculated with either WT B16 or apoE^−/− B16 cells, with anti-CTLA4 antibody on day 0. These vaccinated splenocytes (VS) were harvested on day 7 and co-cultured with either WT B16 or apoE^−/− B16 cells for 48 hr, following which IFNγ levels in media were compared with ELISA assay. […] Readings were measured at 450 nm using the EnSpire 2300 Multilabel plate reader (Perkin Elmer, Waltham, Massachusetts, US).

[4] = co-culture with Myc-inhibited B16 cells 48 hr, multiplex immunoassay (FIG. 18)

COG133: a fragment of apoE peptide, which competes with the apoE holoprotein for binding the LDL receptors and acts as an apoE mimetic
IL-13, IL-4, IL22, IL18, MCP-1, RANTES and Gro-α, WT vaccinated splenocytes [1, 4]: suppression
production of IFNγ, IL-6 and IL-18, naïve splenocytes ([1]; co-cultures with naïve splenocytes, 48 hr, multiplex ELISA (FIG. 17)): suppressive effect
production of IFNγ, IL-6 and IL-18, vaccinated splenocytes ([1]; co-cultures with vaccinated splenocytes, 48 hr, multiplex ELISA (FIG. 17)): diminished in vaccinated splenocytes is still observed
IFNγ, IL6, IL18 and RANTES (CCL5) production ([1]; splenocytes + Myc-inhibited B16 cells, multiplex immunoassay, dose dependent manner): suppressed
IL-1α, IL-1β and IL-23 levels of activated DC ([2]; dose dependent): suppressed; also recorded: decreasing
secretion of anti-inflammatory cytokine IL-10 from activated DC ([2]; dose dependent): induced secretion
production of IL-10, GM-CSF, MCP-1 and MCP-3 by TLR7/8 activated DC ([2]; indicated concentrations, multiplex ELISA (FIG. 16)): increased
detectable cytokines with pattern similar to IFNγ: inhibition in WT mice, reversed in lrp8−/− splenocytes ([3]; ProcartaPlex multiplex, with or without COG133, 48 hr): Seventeen out of 27
IFNγ production from lrp8−/− vaccinated splenocytes ([3]; co-culture with BET/JQ1 treated B16 cells 48 hr, with COG133): inhibitory effect was lacking; also recorded: suppression did not occur
IL-13, IL-4, IL22, IL18, MCP-1, RANTES and Gro-α, lrp8−/− vaccinated splenocytes [3, 4]: suppressive effect is diminished
